# In article PMC7377239, “Cardiovascular Effects of Polychlorinated Biphenyls and Their Major Metabolites” (Environmental Health Perspectives, 2020):
# Structures can show the parent of a compound that is named as a salt. Where two headings read alike, the source gives them in different places.
# How the values were obtained:
# [1] = system: iPSC-CMs, iPSC-ECs and HUVECs phenotypes; assay: ToxPi 2.0 integration of POD values and physicochemical descriptors; parameters: species or system human; settings: ToxPi-scaled (0-1) score; for huvec.cyto.24hr / huvec.mito.24hr / huvec.mitoint.24hr / huvec.nma.24hr / huvec.tc.24hr / huvec.mtl.18hr / huvec.tlps.18hr / huvec.tta.18hr / huvec.ttl.18hr: HUVECs; for huvec.mtl.18hr / huvec.tlps.18hr / huvec.tta.18hr / huvec.ttl.18hr / endo.mtl.18hr / endo.tlps.18hr / endo.tta.18hr / endo.ttl.18hr: tube formation; for cm.amp.avg.90min / cm.amp.cv.90min / cm.bpm.90min / cm.cam.90min / cm.decay.rise.90min / cm.mii.90min / cm.mito.90min / cm.spacing.cv.90min / cm.tc.90min / cm.amp.avg.24hrs / cm.amp.cv.24hrs / cm.bpm.24hrs / cm.cam.24hrs / cm.decay.rise.24hrs / cm.mii.24hrs / cm.mito.24hrs / cm.spacing.cv.24hrs / cm.tc.24hrs: iPSC cardiomyocytes; for endo.cyto.24hr / endo.mito.24hr / endo.mitoint.24hr / endo.nma.24hr / endo.tc.24hr / endo.mtl.18hr / endo.tlps.18hr / endo.tta.18hr / endo.ttl.18hr: iPSC endothelial cells
# Description: Phenotypic responses were quantitatively assessed using concentration–response modeling as detailed elsewhere ([Sirenko et al. 2017]). Briefly, phenotypic readouts were normalized to vehicle controls and fit to a four-parameter logistic model in R studio software (version 3.1.1; R Development Core Team). Following EPA guidance on dose–response modeling, a cutoff of one standard deviation across means of vehicle control (i.e., 0.5% vol/vol DMSO in cell culture media) wells was applied to determine the point-of-departure (POD) values ([U.S. EPA 2012]). In the absence of a concentration–response, the highest tested concentration (i.e., 100μM ) was assigned as “no observable adverse effect level.” The concentration–response assessment R script, as well as templates for vehicle and concentration–response data, are available as a supplement to Sirenko et al. ([2017]). The ability of physicochemical properties to predict differences in PODs were evaluated by multiregression and mixed-effects modeling using R.
# POD values were then integrated using ToxPi 2.0 ([Marvel et al. 2018]) software. In ToxPi, each slice is representative of cell type– and time-point–specific phenotypes. The area of each slice is proportional to the relative value (e.g., bioactivity or physicochemical descriptor value) of the chemical within the data set. ToxPi scores were used to rank PCBs and their metabolites according to their overall bioactivity and to determine variability in total observable biological responses and chemical characteristics for each major metabolite class and chlorination status (mono-, hexa-chlorinated). Additional visualizations such as dumbbell and principal components analysis plots were generated in R Studio (version 1.1.456; R version 3.5.1; R Development Core Team) using the ggplot2 package.
# HUVECs = assay: Tube formation (tubulogenesis) assay in HUVECs, 18 h; type: cell-based, human; settings: Homo sapiens, HUVEC, 18 h, HUVEC
# Summary of the method: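 HUVECs (passage 1–5) seeded on reduced-growth-factor basement membrane and exposed to compounds overnight at 37°C, 5% CO2, in 2× maintenance medium with 12.5 ng/mL VEGF; 0.5% DMSO vehicle. Calcein AM-stained tube networks imaged and analysed; vehicle-normalized readouts fit to four-parameter logistic, POD set at one SD of vehicle means.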
# [2] = tube formation mtl, read-out: POD huvec.mtl.18hr
# [3] = tube formation tlps, read-out: POD huvec.tlps.18hr
# [4] = tube formation tta, read-out: POD huvec.tta.18hr
# [5] = tube formation ttl, read-out: POD huvec.ttl.18hr
smiles,measurement,setting,value
O=S(=O)(O)Oc1cccc(-c2ccc(Cl)cc2)c1 [3'-PCB 3 sulfate],huvec.cyto.24hr,[1],0
same,huvec.mito.24hr,[1],0
same,huvec.mitoint.24hr,[1],0
same,huvec.nma.24hr,[1],0
same,huvec.tc.24hr,[1],0
same,huvec.mtl.18hr,[1],0.4173
same,huvec.tlps.18hr,[1],0
same,huvec.tta.18hr,[1],0
same,huvec.ttl.18hr,[1],0
same,cm.amp.avg.90min,[1],0
same,cm.amp.cv.90min,[1],0
same,cm.bpm.90min,[1],0.07423
same,cm.cam.90min,[1],0
same,cm.decay.rise.90min,[1],0
same,cm.mii.90min,[1],0.03988
same,cm.mito.90min,[1],0
same,cm.spacing.cv.90min,[1],0
same,cm.tc.90min,[1],0
same,cm.amp.avg.24hrs,[1],0
same,cm.amp.cv.24hrs,[1],0
same,cm.bpm.24hrs,[1],0
same,cm.cam.24hrs,[1],0
same,cm.decay.rise.24hrs,[1],0
same,cm.mii.24hrs,[1],0
same,cm.mito.24hrs,[1],0
same,cm.spacing.cv.24hrs,[1],0
same,cm.tc.24hrs,[1],0
same,endo.cyto.24hr,[1],0
same,endo.mito.24hr,[1],0
same,endo.mitoint.24hr,[1],0
same,endo.nma.24hr,[1],0
same,endo.tc.24hr,[1],0
same,endo.mtl.18hr,[1],0.5389
same,endo.tlps.18hr,[1],0.1522
same,endo.tta.18hr,[1],0.1963
same,endo.ttl.18hr,[1],0.2248
same,minimal effective concentration,HUVECs; [2],15.5 µM
same,minimal effective concentration,HUVECs; [3],100 µM
same,minimal effective concentration,HUVECs; [4],100 µM
same,minimal effective concentration,HUVECs; [5],100 µM
O=S(=O)(O)Oc1cc(-c2ccccc2)ccc1Cl [3-PCB 3 sulfate],huvec.cyto.24hr,[1],0
same,huvec.mito.24hr,[1],0
same,huvec.mitoint.24hr,[1],0
same,huvec.nma.24hr,[1],0
same,huvec.tc.24hr,[1],0
same,huvec.mtl.18hr,[1],0.4834
same,huvec.tlps.18hr,[1],0.07929
same,huvec.tta.18hr,[1],0
same,huvec.ttl.18hr,[1],0.09819
same,cm.amp.avg.90min,[1],0.1033
same,cm.amp.cv.90min,[1],0
same,cm.bpm.90min,[1],0
same,cm.cam.90min,[1],0
same,cm.decay.rise.90min,[1],0
same,cm.mii.90min,[1],0
same,cm.mito.90min,[1],0
same,cm.spacing.cv.90min,[1],0
same,cm.tc.90min,[1],0
same,cm.amp.avg.24hrs,[1],0
same,cm.amp.cv.24hrs,[1],0
same,cm.bpm.24hrs,[1],0
same,cm.cam.24hrs,[1],0
same,cm.decay.rise.24hrs,[1],0
same,cm.mii.24hrs,[1],0.391
same,cm.mito.24hrs,[1],0
same,cm.spacing.cv.24hrs,[1],0
same,cm.tc.24hrs,[1],0
same,endo.cyto.24hr,[1],0
same,endo.mito.24hr,[1],0
same,endo.mitoint.24hr,[1],0
same,endo.nma.24hr,[1],0
same,endo.tc.24hr,[1],0
same,endo.mtl.18hr,[1],0
same,endo.tlps.18hr,[1],0.4317
same,endo.tta.18hr,[1],0
same,endo.ttl.18hr,[1],0
same,minimal effective concentration,HUVECs; [2],11.5 µM
same,minimal effective concentration,HUVECs; [3],65.8 µM
same,minimal effective concentration,HUVECs; [4],100 µM
same,minimal effective concentration,HUVECs; [5],52.1 µM
Oc1ccc(-c2ccc(Cl)cc2)cc1 [4'-OH-PCB 3],huvec.cyto.24hr,[1],0.275
same,huvec.mito.24hr,[1],0.3852
same,huvec.mitoint.24hr,[1],0.4333
same,huvec.nma.24hr,[1],0.3408
same,huvec.tc.24hr,[1],0.275
same,huvec.mtl.18hr,[1],0.9876
same,huvec.tlps.18hr,[1],1
same,huvec.tta.18hr,[1],0.5814
same,huvec.ttl.18hr,[1],0.4466
same,cm.amp.avg.90min,[1],0.5917
same,cm.amp.cv.90min,[1],0.3333
same,cm.bpm.90min,[1],0.8225
same,cm.cam.90min,[1],0.8629
same,cm.decay.rise.90min,[1],0.5699
same,cm.mii.90min,[1],0.6837
same,cm.mito.90min,[1],0.8821
same,cm.spacing.cv.90min,[1],0.08302
same,cm.tc.90min,[1],0.896
same,cm.amp.avg.24hrs,[1],1
same,cm.amp.cv.24hrs,[1],0.8417
same,cm.bpm.24hrs,[1],0.3262
same,cm.cam.24hrs,[1],0.1519
same,cm.decay.rise.24hrs,[1],0.2382
same,cm.mii.24hrs,[1],0.4953
same,cm.mito.24hrs,[1],0.213
same,cm.spacing.cv.24hrs,[1],0.1936
same,cm.tc.24hrs,[1],0.2201
same,endo.cyto.24hr,[1],0.1551
same,endo.mito.24hr,[1],0.1551
same,endo.mitoint.24hr,[1],0
same,endo.nma.24hr,[1],0
same,endo.tc.24hr,[1],0.1152
same,endo.mtl.18hr,[1],0.4612
same,endo.tlps.18hr,[1],1
same,endo.tta.18hr,[1],0.4055
same,endo.ttl.18hr,[1],0.4146
same,minimal effective concentration,HUVECs; [2],1.21 µM
same,minimal effective concentration,HUVECs; [3],0.51 µM
same,minimal effective concentration,HUVECs; [4],5.36 µM
same,minimal effective concentration,HUVECs; [5],5.16 µM
"COc1ccc(-c2ccc(Cl)cc2)cc1 [4'-OMe-PCB 3, 4′-methoxy-4-chlorobiphenyl]",huvec.cyto.24hr,[1],0.2539
same,huvec.mito.24hr,[1],0.3347
same,huvec.mitoint.24hr,[1],0.2259
same,huvec.nma.24hr,[1],0.5435
same,huvec.tc.24hr,[1],0.2539
same,huvec.mtl.18hr,[1],0.5905
same,huvec.tlps.18hr,[1],0.1332
same,huvec.tta.18hr,[1],0.4823
same,huvec.ttl.18hr,[1],0.3839
same,cm.amp.avg.90min,[1],0.148
same,cm.amp.cv.90min,[1],0.2333
same,cm.bpm.90min,[1],0.4231
same,cm.cam.90min,[1],0
same,cm.decay.rise.90min,[1],0
same,cm.mii.90min,[1],0
same,cm.mito.90min,[1],0
same,cm.spacing.cv.90min,[1],0.06946
same,cm.tc.90min,[1],0
same,cm.amp.avg.24hrs,[1],0.1468
same,cm.amp.cv.24hrs,[1],0
same,cm.bpm.24hrs,[1],0.4274
same,cm.cam.24hrs,[1],0.02517
same,cm.decay.rise.24hrs,[1],0.569
same,cm.mii.24hrs,[1],0
same,cm.mito.24hrs,[1],0
same,cm.spacing.cv.24hrs,[1],0.5026
same,cm.tc.24hrs,[1],0
same,endo.cyto.24hr,[1],0
same,endo.mito.24hr,[1],0
same,endo.mitoint.24hr,[1],0.218
same,endo.nma.24hr,[1],0
same,endo.tc.24hr,[1],0
same,endo.mtl.18hr,[1],0.3533
same,endo.tlps.18hr,[1],0.3362
same,endo.tta.18hr,[1],0.2327
same,endo.ttl.18hr,[1],0.2433
same,minimal effective concentration,HUVECs; [2],7.13 µM
same,minimal effective concentration,HUVECs; [3],49.5 µM
same,minimal effective concentration,HUVECs; [4],8.82 µM
same,minimal effective concentration,HUVECs; [5],7.82 µM
O=S(=O)(O)Oc1ccc(-c2ccc(Cl)cc2)cc1 [4'-PCB 3 sulfate],huvec.cyto.24hr,[1],0
same,huvec.mito.24hr,[1],0
same,huvec.mitoint.24hr,[1],0
same,huvec.nma.24hr,[1],0
same,huvec.tc.24hr,[1],0
same,huvec.mtl.18hr,[1],0.4903
same,huvec.tlps.18hr,[1],0
same,huvec.tta.18hr,[1],0.272
same,huvec.ttl.18hr,[1],0
same,cm.amp.avg.90min,[1],0.6628
same,cm.amp.cv.90min,[1],0.2569
same,cm.bpm.90min,[1],0.1909
same,cm.cam.90min,[1],0
same,cm.decay.rise.90min,[1],0.4625
same,cm.mii.90min,[1],0
same,cm.mito.90min,[1],0
same,cm.spacing.cv.90min,[1],0.1039
same,cm.tc.90min,[1],0
same,cm.amp.avg.24hrs,[1],0
same,cm.amp.cv.24hrs,[1],0
same,cm.bpm.24hrs,[1],0
same,cm.cam.24hrs,[1],0
same,cm.decay.rise.24hrs,[1],0
same,cm.mii.24hrs,[1],0.1652
same,cm.mito.24hrs,[1],0
same,cm.spacing.cv.24hrs,[1],0
same,cm.tc.24hrs,[1],0
same,endo.cyto.24hr,[1],0
same,endo.mito.24hr,[1],0
same,endo.mitoint.24hr,[1],0
same,endo.nma.24hr,[1],0
same,endo.tc.24hr,[1],0
same,endo.mtl.18hr,[1],0.3281
same,endo.tlps.18hr,[1],0.3444
same,endo.tta.18hr,[1],0.1625
same,endo.ttl.18hr,[1],0.2037
same,minimal effective concentration,HUVECs; [2],11.2 µM
same,minimal effective concentration,HUVECs; [3],100 µM
same,minimal effective concentration,HUVECs; [4],25.4 µM
same,minimal effective concentration,HUVECs; [5],100 µM
